Here are results for two compounds from patent US8691261B2, “Drug, drug guidance system, magnetic detection system, and drug design method” (IHI Corporation, priority 2005, dated 2014).

The nature of data set [1]: magnetic guidance to mouse right kidney, SNR measured by MRI. The note with it: intravenous, 5 mg/ml (15 mM), right kidney approximately 0.3 T, 10 minutes. Format: in vivo. The source says:
Next, another example of a guidance system according to the present invention will be explained. In this guidance system, a pair of magnets 230 and 232 located opposite to each other in a direction of gravitational force is supported by a stand 234 and a clamp 235, and a metal plate 236 is placed between the magnets as shown in FIG. 23. A locally uniform and strong magnet field can be generated by placing the metal plate, particularly an iron plate, between the pair of magnets.
The drug can be concentrated on the target tissues by placing the tissues of the individual body in this area of the magnetic field. The aforementioned metal complex (drug concentration: 5 mg/ml (15 mM)) was administered intravenously to a mouse (weight: approximately 30 g), the abdominal cavity of the mouse was opened, and the mouse was then placed on the iron plate so that its right kidney was positioned between the pair of magnets.
The magnets used were neodymium permanent magnets made by Shin-Etsu Chemical Co., Ltd. (product number: N50; residual magnetic flux density: 1.39-1.44 T). […] The magnetic field was applied to the mouse's right kidney; and 10 minutes later, the SNR of the right kidney as well as the left kidney […] (control) to which no magnetic field was applied was measured in T1 mode and T2 mode, using the MRI system.

The test system of data set [2] is rat L6 cells. The data set can be described thus: number of rat L6 cells in flask with bar magnet after sprinkling Fe complex powder. Format: cell-based. Conditions: 48 hours, bar magnet in contact with flask. From the text: A group of samples shown on the left side is obtained by diluting a pyridine concentrate solution with water (double distilled water (DDW)), while a group of samples shown on the right side is obtained by diluting a pyridine iron complex saturated solution with pyridine. By changing the concentration of the iron complex in pyridine to, for example, ½ or 1/16 of the aforementioned concentration of the solution containing only pyridine, the MRI can detect changes in the concentration through images. Subsequently, when rat L6 cells were in 30% confluent state, Fe complex powder was sprinkled over a culture medium as much as required to enable visual observation of the Fe complex powder when being drawn to magnets. 48 hours later, the condition of the culture medium was photographed.
Referring to FIG. 22, “proximal to magnet” means within the projected area of the bottom of the rectangular flask in contact with the end face of the magnet, while “distal from magnet” means an area of the rectangular flask opposite the end face of the magnet. […] As a result, the magnetic drug and the system including the magnetic field generating means according to the present invention can concentrate the drug at the target affected part or tissues of an individual body.

For data set [3] the following is noted: compared to cisplatin; cited from earlier work.

Turning to Fe-salen, in data set [1], the “amount of drug held in kidney tissues (SNR, T1 and T2 mode MRI)” value is listed as “larger amount of the drug could be held in the tissues of the right kidney (RT)”. Also, the “number of cells at area proximal to the magnet compared to area distal from the magnet” value in data set [2] is “extremely low”. With `CC(C[NH-])CC[NH-].O=C([O-])C1(C(=O)[O-])CCC1.[Pt+4]` [NK121], the anticancer effect entry in data set [3] was “comparable to that of cisplatin”.
